# Test results as given in patent publication US8524866B2, “Antibodies to the alpha-7 nicotinic receptors and methods of treating inflammatory disorders with the same” (The Feinstein Institute for Medical Research, priority 2005, dated 2013).
# Biological target: α-bungarotoxin-binding nicotinic receptors on primary human macrophages (Homo sapiens, UniProt P36544)
# Sequence (P36544 23-502): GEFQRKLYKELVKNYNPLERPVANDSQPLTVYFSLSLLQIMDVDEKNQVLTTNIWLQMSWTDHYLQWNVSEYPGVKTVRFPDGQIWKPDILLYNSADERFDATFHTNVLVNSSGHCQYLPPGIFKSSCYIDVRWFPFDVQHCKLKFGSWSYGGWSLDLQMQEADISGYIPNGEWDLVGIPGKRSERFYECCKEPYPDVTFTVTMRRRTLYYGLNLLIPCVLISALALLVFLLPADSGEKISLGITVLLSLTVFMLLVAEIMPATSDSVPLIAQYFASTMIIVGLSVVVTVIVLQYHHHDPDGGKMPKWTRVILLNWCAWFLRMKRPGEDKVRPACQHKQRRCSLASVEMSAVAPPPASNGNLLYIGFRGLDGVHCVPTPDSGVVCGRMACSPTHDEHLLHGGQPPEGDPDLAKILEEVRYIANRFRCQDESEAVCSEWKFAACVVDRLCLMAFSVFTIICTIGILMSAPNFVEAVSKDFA
Compound,effect on intensity of α-bungarotoxin binding,binding on the macrophage surface
CN1CCCC1c1cccnc1 (centres unmarked) [Nicotine],markedly reduced,–
α-bungarotoxin,–,Strong binding
